Test results as given in US20160264935A1, “TRANSFORMED HUMAN PLURIPOTENT STEM CELLS AND ASSOCIATED METHODS” (McMaster University, priority 2009, published 2016).
Counter-ions that a name gives are not always drawn.

Key:
[1] = test system: transformed stem cells (Oct4-GFP); test: High Content Screening of Oct4-GFP expression (ArrayScan HCS reader); type: cell-based, human
Experimental: At day 2 and 3 BMP4 was added to each of the treated wells at various concentrations. On day 4 microtiter plates containing treated transformed stem cells were imaged using the cellomics ArrayScan HCS reader (Thermofisher). Oct4-GFP expression was shown in green while cell nuclei are shown in blue (Hoescht 33342). A) No BMP untreated control.
Cells were grown as described in FIG. 9 with the exception of the addition of BMP4 which was replaced by DMSO at multiple concentrations as described in the Figure legends. DMSO is a chemical compound used in drug studies as a solvent which is known to induce stem cell differentiation. On day 5, after cell seeding and culture, microtiter plates were imaged using the ArrayScan HCS reader (Thermofisher). […] D) Cell numbers were quantified based on the automated detection and segregation of cells labelled by the nuclear dye Hoescht. […] All images were analyzed using the Cellomics software.
Transformed stem cells were seeded as single cells and grown in culture using standard stem cell culture conditions for 4 days. […] On day 4 microtiter plates containing treated transformed stem cells were imaged using the cellomics ArrayScan HCS reader (Thermofisher). […]
Due to image analysis limitations similar data could not be obtained when normal cells were used for the assays. […] All images were analyzed using the Cellomics software.

[2] = test system: human mobilized peripheral blood; test: Cell viability by trypan blue exclusion; type: cell-based; conditions: 0.1-10 μM, 5 days
Experimental: FIGS. 1D-E: Measurements of cell viability using trypan blue on human mobilized peripheral blood treated with mefloquine or thioridazine for 5 days. […] In order to further investigate the compounds identified by the screen, mefloquine and thioridazine were used to treat human mobilized peripheral blood for 5 days. Cell viability was measured using trypan blue exclusion.

human iPS cells = test: Frequency of Oct4+ cells by flow cytometry; type: cell-based; conditions: 7 days of treatment; compared to MEFCM and DMSO
Description: FIG. A: identification of inducers of stem cell differentiation. 300 compounds were screened to detect the fluorescence emitted from the Oct4-GFP reporter expressed in transformed cells and normalized to the relative cell nuclear number as defined by Hoechst staining. GFP/Hoechst ratios below zero, the threshold defined by BMP4 (a known stem cell differentiator), are considered potent inducers of stem cells differentiation. FIGS. B-C: the frequency of Oct4+ human iPS cells measured using flow cytometry following 7 days of treatment with Mefloquine (MEFLO) or thioridazine (THIO) compared to culture media (MEFCM) and culture media supplemented with DMSO (DMSO). […] FIGS. 1D-E: Measurements of cell viability using trypan blue on human mobilized peripheral blood treated with mefloquine or thioridazine for 5 days. […] Mefloquine (MEFLO) and thioridazine (THIO) were then tested in human iPS cells. Following 7 days of treatment, the frequency of Oct4+ cells were measured using flow cytometry and compared to culture media (MEFCM) and culture media supplemented with DMSO (DMSO) as a vehicle to augment compound solubility.

[3] = test system: t-hPSCs that contain an Oct4-GFP reporter gene; test: Screen of 300 compounds for inducers of stem cell differentiation (Oct4-GFP/Hoechst ratio); type: cell-based, human; conditions: 72 hours after exposure; fluorescence plate reader
Description: FIG. A: identification of inducers of stem cell differentiation. 300 compounds were screened to detect the fluorescence emitted from the Oct4-GFP reporter expressed in transformed cells and normalized to the relative cell nuclear number as defined by Hoechst staining. GFP/Hoechst ratios below zero, the threshold defined by BMP4 (a known stem cell differentiator), are considered potent inducers of stem cells differentiation. FIGS. B-C: the frequency of Oct4+ human iPS cells measured using flow cytometry following 7 days of treatment with Mefloquine (MEFLO) or thioridazine (THIO) compared to culture media (MEFCM) and culture media supplemented with DMSO (DMSO). […] FIGS. 1D-E: Measurements of cell viability using trypan blue on human mobilized peripheral blood treated with mefloquine or thioridazine for 5 days. […]
Plates containing the cells were analyzed 72 hours after exposure to the compounds using a fluorescence plate reader capable of detecting the fluorescence emitted from the Oct4-GFP reporter expressed in transformed cells and normalized to the relative cell nuclear number as defined by Hoechst staining. […]

[4] = test system: transformed pluripotent stem cells with EOS Oct4-GFP reporter; test: High throughput plate reader screen for loss of pluripotency (Oct4-Alexa 647 antibody and GFP); type: cell-based, human; conditions: 1, 10, 100 ng/mL BMP4 for 4 days, n=3
Experimental: Transformed pluripotent stem cells were passaged as single cells using Trypsin and seeded at 1000 cells per well into 96 well optical imaging plates coated with Matrigel ® containing 100 ul mouse embryonic fibroblast conditioned media (MEF-CM). Plates were incubated at 37 degrees for 24 Hr before treatment with bone morphogenic protein 4 (BMP4) commenced. Cells were treated with either 1 ng/mL, 10 ng/mL, 100 ng/mL, or 0 ng/mL BMP4 for 4 days (n=3). After 4 days cells were fixed with 2% paraformaldehyde and stained with Oct4-Alexa 647 antibody. Cells were loaded into a plate reader and measured at excitation emission pairs of 650/665 and 488/520 nm to measure Oct4-Alexa 647 antibody (top graph) and GFP (bottom graph) respectively. Pluripotency (measured by the loss of OCT4 and GFP expression) decreased with the increase in differentiation inducing compound BMP4. Similar results were obtained when other compounds were tested. […]
The versatility of transformed human pluripotent stem cells is illustrated by the multiple types of assays that it enables. […] Cells were loaded into a plate reader and measured at excitation emission pairs of 650/665 and 488/520 nm to measure Oct4-Alexa 647 antibody (FIG. 7 top graph) and GFP (FIG. 7 bottom graph) respectively. Pluripotency (measured by the loss of OCT4 and GFP expression) decreased with the increase in differentiation inducing compound BMP4. […]

[5] = test system: transformed pluripotent stem cells that contain an Oct4-GFP reporter; test: Microscope imaging of Oct4 antibody staining and GFP after BMP-4 treatment; type: cell-based, human; conditions: increased amounts of BMP-4, 4 days; microscope images
Experimental: Transformed pluripotent stem cells that contain an Oct4-GFP reporter were plated, cultured, treated with BMP-4 and fixed as described in FIG. 7. Cells were permeabilized with 0.1% TritonX-100 and stained with Oct4 antibody conjugated with Alexa 647. The cell nuclei were stained with Hoechst 33342. Images were collected using 10× objective on Olympus microscope, and analysed using Image-Pro Plus software.
Cells were permeabilized with 0.1% TritonX-100 and stained with Oct4 antibody conjugated with Alexa 647. The cell nuclei were stained with Hoechst 33342. Images were collected using 10× objective on Olympus microscope, and analysed using Image-Pro Plus software.

| Compound | Cell viability relative to control samples (0 μM) [2] | Frequency of Oct4+ cells (human iPS cells) | Induction of t-hPSC differentiation (GFP/Hoechst ratio below zero, the threshold defined by BMP4) [3] | further results |
| --- | --- | --- | --- | --- |
| C[S+](C)[O-] [DMSO] | – | – | – | Oct4-GFP expression ([1]; DMSO 0%, 0.01%, 2% (v/v) for 4 consecutive days, imaged day 5): decreasing expression levels of GFP |
| OC(c1cc(C(F)(F)F)nc2c(C(F)(F)F)cccc12)C1CCCCN1 (centres unmarked) [Mefloquine HCl] | did not reduce cell viability | decrease | potent inducers of t-hPSCs differentiation | – |
| CSc1ccc2c(c1)N(CCC1CCCCN1C)c1ccccc1S2 (centres unmarked) [Thioridazine HCl] | did not reduce cell viability | decrease | potent inducers of t-hPSCs differentiation | – |
| bone morphogenic protein 4 [BMP4] | – | – | – | Oct4-GFP expression ([1]; BMP4 added at day 2 and 3, imaged day 4): significant loss of GFP expression; Pluripotency (measured by the loss of OCT4 and GFP expression) [4]: decreased; GFP fluorescence (Oct4-GFP reporter) [5]: decreased GFP fluorescence; Oct-4 antibody staining [5]: decreased Oct-4 antibody staining |
